The values that follow come from patent US10428083B2, “Heterocyclylmethyl-thienouracile as antagonists of the adenosine-A2B-receptor” (BAYER PHARMA AKTIENGESELLSCHAFT, priority 2015, dated 2019).

For this assay, the target named is human adenosine A2b receptor (Homo sapiens (Human), UniProt P29275). As to the kind of experiment: Cellular in vitro reporter gene test for A2b receptor activity (CHO-K1, CRE-luciferase, NECA stimulation). The class given is cell-based. As to conditions: recombinant CHO-K1 cell line, CRE-luciferase reporter, antagonism of EC50 concentration of NECA; in some cases means of several determinations, rounded to two significant figures; read-out: A2b receptor IC50. Here is the method: B-1. Cellular In Vitro Tests for Determining A2b Receptor Activity and Adenosine Receptor Selectivity
Sequence of human adenosine A2b receptor (P29275 whole entry): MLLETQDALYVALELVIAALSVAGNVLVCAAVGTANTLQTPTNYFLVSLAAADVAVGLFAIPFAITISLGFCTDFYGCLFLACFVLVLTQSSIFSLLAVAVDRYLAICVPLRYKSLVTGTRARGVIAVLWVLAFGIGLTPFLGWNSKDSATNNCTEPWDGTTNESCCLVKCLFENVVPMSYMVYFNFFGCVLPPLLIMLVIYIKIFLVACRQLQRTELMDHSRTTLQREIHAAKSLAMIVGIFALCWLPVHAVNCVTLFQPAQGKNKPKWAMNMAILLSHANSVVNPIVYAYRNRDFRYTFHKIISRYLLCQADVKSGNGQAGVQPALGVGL
In the case of the A2a and A2b cell lines, this is a minimal promoter having a plurality of cAMP-responsive elements (CRE). Stimulation of the Gs-coupled A2b or A2a receptors by NECA ultimately leads, via formation of cAMP, to CRE-dependent induction of luciferase expression, which is detected 3 hours after the start of the incubation with NECA using a detection solution in a suitable luminometer. For testing the antagonists, initially, in a pre-experiment, the concentration of NECA which, at the test day in question, results in half-maximum stimulation of luciferase expression (EC50 concentration) is determined. By joint incubation of this EC50 concentration of NECA with the substances to be tested, it is possible to determine their antagonistic activity.

pIC50: −log10 of the molar value.

For orientation: pIC50 means the negative decadic logarithm of the IC50, by convention in mol/L. Turning to `Cc1c(CN2CCNC(=O)C2=O)sc2c1c(=O)n(CC(F)(F)F)c(=O)n2CC1CCCO1` (racemic) [Example 487, 6-[(2,3-Dioxopiperazin-1-yl)methyl]-5-methyl-1-(tetrahydrofuran-2-ylmethyl)-3-(2,2,2-trifluoroethyl)thieno[2,3-d]pyrimidine-2,4(1H,3H)-dione], the pIC50 is 6.60. Take `COCCn1c(=O)n(C(C)C)c(=O)c2c(C)c(Cn3cc[nH]c3=O)sc21` [Example 246, 3-Isopropyl-1-(2-methoxyethyl)-5-methyl-6-[(2-oxo-2,3-dihydro-1H-imidazol-1-yl)methyl]thieno[2,3-d]pyrimidine-2,4(1H,3H)-dione]: the pIC50 was 8.33. For `Cc1c(CN2CCNC(=O)C2=O)sc2c1c(=O)n(CC(C)C)c(=O)n2CCCF` [Example 121, 6-[(2,3-Dioxopiperazin-1-yl)methyl]-1-(3-fluoropropyl)-3-isobutyl-5-methylthieno[2,3-d]pyrimidine-2,4(1H,3H)-dione] the value was 7.70; for `CCn1c(=O)c2c(C)c(CN3CCNC3=O)sc2n(CC2CCCCO2)c1=O` (single isomer, unassigned) [Example 179, 3-Ethyl-5-methyl-6-[(2-oxoimidazolidin-1-yl)methyl]-1-(tetrahydro-2H-pyran-2-ylmethyl)thieno[2,3-d]pyrimidine-2,4(1H,3H)-dione], 6.70; for `CCn1c(=O)c2c(C)c(CN3CCNS3(=O)=O)sc2n(CCC(F)(F)F)c1=O` [Example 27, 6-[(1,1-Dioxido-1,2,5-thiadiazolidin-2-yl)methyl]-3-ethyl-5-methyl-1-(3,3,3-trifluoropropyl)thieno[2,3-d]pyrimidine-2,4(1H,3H)-dione], 8.57. For `Cc1c(Cn2cc[nH]c2=O)sc2c1c(=O)n(C(C)C)c(=O)n2CC1CCCO1` (single isomer, unassigned) [Example 248, 3-Isopropyl-5-methyl-6-[(2-oxo-2,3-dihydro-1H-imidazol-1-yl)methyl]-1-(tetrahydrofuran-2-ylmethyl)thieno[2,3-d]pyrimidine-2,4(1H,3H)-dione] the value was 8.29; for `CCn1c(=O)c2c(C)c(CN3CCNC3=S)sc2n(CCOC)c1=O` [Example 31, 3-Ethyl-1-(2-methoxyethyl)-5-methyl-6-[(2-thioxoimidazolidin-1-yl)methyl]thieno[2,3-d]pyrimidine-2,4(1H,3H)-dione], 8.66; for `CCn1c(=O)c2c(C)c(CN3CC(NC(=O)OC(C)(C)C)CC3=O)sc2n(CCC(F)(F)F)c1=O` (racemic) [Example 8, tert-Butyl (1-{[3-ethyl-5-methyl-2,4-dioxo-1-(3,3,3-trifluoropropyl)-1,2,3,4-tetrahydrothieno[2,3-d]pyrimidin-6-yl]methyl}-5-oxopyrrolidin-3-yl)carbamate (racemate)], 6.92. For the compound `CCn1c(=O)c2c(C)c(CN3CCNC3=O)sc2n(CC2CCO2)c1=O` (single isomer, unassigned; enantiomer 2) [Example 67, 3-Ethyl-5-methyl-1-(oxetan-2-ylmethyl)-6-[(2-oxoimidazolidin-1-yl)methyl]thieno[2,3-d]pyrimidine-2,4(1H,3H)-dione (Enantiomer 2)], the pIC50 is 7.54. For `Cc1c(Cn2[nH]ccc2=O)sc2c1c(=O)n(CC(F)(F)F)c(=O)n2CC1CCCO1` (racemic) [Example 284, 5-Methyl-6-[(5-oxo-2,5-dihydro-1H-pyrazol-1-yl)methyl]-1-(tetrahydrofuran-2-ylmethyl)-3-(2,2,2-trifluoroethyl)thieno[2,3-d]pyrimidine-2,4(1H,3H)-dione] the value was 7.10; for `Cc1c(CN2CCNC2=S)sc2c1c(=O)n(CC(F)F)c(=O)n2CCC(F)(F)F` [Example 160, 3-(2,2-Difluoroethyl)-5-methyl-6-[(2-thioxoimidazolidin-1-yl)methyl]-1-(3,3,3-trifluoropropyl)thieno[2,3-d]pyrimidine-2,4(1H,3H)-dione], 8.54; for `Cc1c(Cn2[nH]ccc2=O)sc2c1c(=O)n(C(C)C)c(=O)n2CC1CCCO1` (racemic) [Example 134, 3-Isopropyl-5-methyl-6-[(5-oxo-2,5-dihydro-1H-pyrazol-1-yl)methyl]-1-(tetrahydrofuran-2-ylmethyl)thieno[2,3-d]pyrimidine-2,4(1H,3H)-dione], 7.52. For `CCn1c(=O)c2c(C)c(Cn3ncn(CC(O)CO)c3=O)sc2n(CCOC(F)(F)F)c1=O` (racemic) [Example 115, 6-{[4-(2,3-Dihydroxypropyl)-5-oxo-4,5-dihydro-1H-1,2,4-triazol-1-yl]methyl}-3-ethyl-5-methyl-1-[2-(trifluoromethoxy)ethyl]thieno[2,3-d]pyrimidine-2,4(1H,3H)-dione] the value was 7.51. In the case of `Cc1c(CN2CCNC2=S)sc2c1c(=O)n(CC(F)F)c(=O)n2C` [Example 166, 3-(2,2-Difluoroethyl)-1,5-dimethyl-6-[(2-thioxoimidazolidin-1-yl)methyl]thieno[2,3-d]pyrimidine-2,4(1H,3H)-dione], the pIC50 is 7.89. For `Cc1c(CN2CCNC2=O)sc2c1c(=O)n(CC(C)C)c(=O)n2CCF` [Example 88, 1-(2-Fluoroethyl)-3-isobutyl-5-methyl-6-[(2-oxoimidazolidin-1-yl)methyl]thieno[2,3-d]pyrimidine-2,4(1H,3H)-dione] the value was 8.17. For `Cc1c(CN2CCNC(=O)C2=O)sc2c1c(=O)n(CC(F)F)c(=O)n2C` [Example 275, 3-(2,2-Difluoroethyl)-6-[(2,3-dioxopiperazin-1-yl)methyl]-1,5-dimethylthieno[2,3-d]pyrimidine-2,4(1H,3H)-dione] the value was 7.12; for `COCCn1c(=O)n(CC(F)(F)F)c(=O)c2c(C)c(CN3CCNC3=NC(=O)OC)sc21` [Example 382, Methyl [1-{[1-(2-methoxyethyl)-5-methyl-2,4-dioxo-3-(2,2,2-trifluoroethyl)-1,2,3,4-tetrahydrothieno[2,3-d]pyrimidin-6-yl]methyl}imidazolidin-2-ylidene]carbamate], 8.17. Turning to `CCSCCn1c(=O)n(CC)c(=O)c2c(C)c(CN3CCNC3=S)sc21` [Example 294, 3-Ethyl-1-[2-(ethylsulphanyl)ethyl]-5-methyl-6-[(2-thioxoimidazolidin-1-yl)methyl]thieno[2,3-d]pyrimidine-2,4(1H,3H)-dione], the pIC50 is 7.70. For `Cc1c(CN2CCNC2=O)sc2c1c(=O)n(CC(F)(F)F)c(=O)n2CC1CCO1` (single isomer, unassigned) [Example 207, 5-Methyl-1-(oxetan-2-ylmethyl)-6-[(2-oxoimidazolidin-1-yl)methyl]-3-(2,2,2-trifluoroethyl)thieno[2,3-d]pyrimidine-2,4(1H,3H)-dione] the value was 7.37. For `Cc1c(CN2CCNC2=S)sc2c1c(=O)n(CC(F)(F)F)c(=O)n2CC1CCO1` (racemic) [Example 154, 5-Methyl-1-(oxetan-2-ylmethyl)-6-[(2-thioxoimidazolidin-1-yl)methyl]-3-(2,2,2-trifluoroethyl)thieno[2,3-d]pyrimidine-2,4(1H,3H)-dione] the value was 8.15; for `Cc1c(Cn2nc[nH]c2=O)sc2c1c(=O)n(CC(C)(C)C)c(=O)n2CC1CCCO1` (racemic) [Example 429, 3-(2,2-Dimethylpropyl)-5-methyl-6-[(5-oxo-4,5-dihydro-1H-1,2,4-triazol-1-yl)methyl]-1-(tetrahydrofuran-2-ylmethyl)thieno[2,3-d]pyrimidine-2,4(1H,3H)-dione], 7.12. For `CCCn1c(=O)c2c(C)c(CN3CCNC3=O)sc2n(CCOC)c1=O` [Example 84, 1-(2-Methoxyethyl)-5-methyl-6-[(2-oxoimidazolidin-1-yl)methyl]-3-propylthieno[2,3-d]pyrimidine-2,4(1H,3H)-dione] the value was 8.41; for `Cc1c(CN2CCNC2=S)sc2c1c(=O)n(CC(F)(F)F)c(=O)n2CC1COC1` [Example 158, 5-Methyl-1-(oxetan-3-ylmethyl)-6-[(2-thioxoimidazolidin-1-yl)methyl]-3-(2,2,2-trifluoroethyl)thieno[2,3-d]pyrimidine-2,4(1H,3H)-dione], 8.26. Regarding `Cc1c(CN2CCNC(=O)C2=O)sc2c1c(=O)n(CC(F)(F)F)c(=O)n2C` [Example 124, 6-[(2,3-Dioxopiperazin-1-yl)methyl]-1,5-dimethyl-3-(2,2,2-trifluoroethyl)thieno[2,3-d]pyrimidine-2,4(1H,3H)-dione], the pIC50 is 7.22.

For the compound `COCCn1c(=O)n(CC2CCCO2)c(=O)c2c(C)c(CN3CCNC3=O)sc21` (single isomer, unassigned) [Example 334, 1-(2-Methoxyethyl)-5-methyl-6-[(2-oxoimidazolidin-1-yl)methyl]-3-(tetrahydrofuran-2-ylmethyl)thieno[2,3-d]pyrimidine-2,4(1H,3H)-dione], the pIC50 is 6.92.

With `C=CCn1cnn(Cc2sc3c(c2C)c(=O)n(CC)c(=O)n3CCCF)c1=O` [Example 350, 6-[(4-Allyl-5-oxo-4,5-dihydro-1H-1,2,4-triazol-1-yl)methyl]-3-ethyl-1-(3-fluoropropyl)-5-methylthieno[2,3-d]pyrimidine-2,4(1H,3H)-dione], the pIC50 was 6.68. With `Cc1c(Cn2cc[nH]c2=O)sc2c1c(=O)n(CC(F)(F)F)c(=O)n2CC1CCCO1` (single isomer, unassigned) [Example 342, 5-Methyl-6-[(2-oxo-2,3-dihydro-1H-imidazol-1-yl)methyl]-1-(tetrahydrofuran-2-ylmethyl)-3-(2,2,2-trifluoroethyl)thieno[2,3-d]pyrimidine-2,4(1H,3H)-dione], the pIC50 was 7.89.
